Results: PubChem BioAssay (NCI)
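Interpolation was linear, between the two tested concentrations surrounding the appropriate level; five concentrations were tested over 48 hours in 96-well plates. Here, GI50 denotes the concentration required for 50% inhibition of growth. TGI is the concentration that stops growth completely.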

The molecules below were run on TK-10 renal (assay: growth of human tumour cells (NCI), 48 h).

Compound | GI50 | TGI
CCC#CC[C@H]1C/C=C2/C(=O)C=C[C@@H]2C/C=C\CCCC(=O)O1 | 1.74 µM | 4.59 µM
COc1cc[nH]c1/C=C1\C(=O)Nc2ccccc21 | 6.71 µM | > 25 µM
O=C(Nc1ccc(Cl)cc1)c1cc(-c2ccc(F)cc2)c2sc(=O)[nH]c2n1 | 1.88 µM | 4.94 µM
COc1cc(NC(=O)c2cc(O)c(CC=C(C)C)c(O)c2)cc2c1O[C@]1(C)CC[C@@H](O)C(C)(C)[C@H]1C2 | 9.59 µM | 55.6 µM
Cc1ccc(C(=NN=C(N)N)c2ccc(C)cc2)cc1 | 0.876 µM | 11.4 µM
Clc1nc(Cl)c2ncn(Cc3cccc(COc4cccc(OCc5cccc(Cn6cnc7c(Cl)nc(Cl)nc76)c5)c4)c3)c2n1 | 37.5 µM | > 100 µM
CN(C)c1ccc(N)cc1 | 3.05 µM | 18.5 µM
CCS(=O)(=O)c1ccc(OC)c(Nc2ncc(-c3cccc(OC)c3)o2)c1 | 6.5 µM | 18.6 µM
CC(C)c1ccc(C(=O)Nc2sc3c(c2C(N)=O)CCC(=O)C3)cc1 | 1.29 µM | 3.81 µM

These molecules were tested on U251 CNS (assay: growth of human tumour cells (NCI), 48 h).

Compound | GI50 | TGI
O=C(c1cccc(O)c1O)c1cn(Cc2ccc(F)cc2)c2cccc(O)c12 | 2.95 µM | 15.2 µM
Nc1ncc(-c2cnn(CCO)c2)c2scc(-c3ccc(NC(=O)Nc4cccc(F)c4)cc3)c12 | 0.301 µM | 1.72 µM
COc1cc(C2=NN(C(C)=O)C(c3ccc(OC(C)=O)cc3OC(C)=O)O2)c(OC(C)=O)c2ccccc12 (stereo unspecified) | 0.472 µM | 14.8 µM
COC(=O)Nc1nc2ccc(Oc3ccc(NC(=O)Nc4ccccc4)cc3)cc2[nH]1 | 0.126 µM | 6.6 µM
O=C1c2c(Br)sc(Br)c2C(NC(=O)C(F)(F)F)C1O (stereo unspecified) |  | 37.4 µM
CCN(CC)CCCC(C)Nc1c(C)cnc2cc(Cl)c(C)cc12 (stereo unspecified) | 12 µM | > 100 µM
CC(=O)OC1CC(O)C23COC(O)C1(C)C2CC(O)C1(C)C3C(=O)C(O)C2(C)C(c3ccoc3)CC3OC321 (stereo unspecified) | 0.379 µM | > 100 µM
CCCCCCCC(CC(=O)NC(CO)C(=O)NC(CO)CC(C)C)OC(=O)CC(CCCCCCC)OC(=O)CC(CCCCCCC)OC1OC(C)C(O)C(OC2OC(C)C(O)C(OC(C)=O)C2O)C1O (stereo unspecified) |  | 17.2 µM
COc1ccc(C(C)c2cc3c(cc2OC)OCO3)cc1 (stereo unspecified) |  | > 100 µM
CCc1[nH]c(=O)nc(N)c1-c1ccc(N2CCCCC2)c([N+](=O)[O-])c1 |  | > 100 µM
CCC#CC[C@H]1C/C=C2/C(=O)C=C[C@@H]2C/C=C\CCCC(=O)O1 | 0.706 µM | 2.24 µM
COc1cc[nH]c1/C=C1\C(=O)Nc2ccccc21 | 4.17 µM | > 25 µM
O=C(Nc1ccc(Cl)cc1)c1cc(-c2ccc(F)cc2)c2sc(=O)[nH]c2n1 | 1.5 µM | 4.71 µM
COc1cc(NC(=O)c2cc(O)c(CC=C(C)C)c(O)c2)cc2c1O[C@]1(C)CC[C@@H](O)C(C)(C)[C@H]1C2 | 0.846 µM | 14.8 µM
Cc1ccc(C(=NN=C(N)N)c2ccc(C)cc2)cc1 | 0.399 µM | 1.83 µM
Clc1nc(Cl)c2ncn(Cc3cccc(COc4cccc(OCc5cccc(Cn6cnc7c(Cl)nc(Cl)nc76)c5)c4)c3)c2n1 | 36.9 µM | > 100 µM
CN(C)c1ccc(N)cc1 | 3.36 µM | 13.2 µM
CCS(=O)(=O)c1ccc(OC)c(Nc2ncc(-c3cccc(OC)c3)o2)c1 | 8.09 µM | > 25 µM
CC(C)c1ccc(C(=O)Nc2sc3c(c2C(N)=O)CCC(=O)C3)cc1 | 0.399 µM | 1.9 µM

What follows are molecules tested on UO-31 renal (assay: growth of human tumour cells (NCI), 48 h).

Compound | GI50 | TGI
O=C(c1cccc(O)c1O)c1cn(Cc2ccc(F)cc2)c2cccc(O)c12 | 1.14 µM | 5.24 µM
Nc1ncc(-c2cnn(CCO)c2)c2scc(-c3ccc(NC(=O)Nc4cccc(F)c4)cc3)c12 | 0.219 µM | 1.98 µM
COc1cc(C2=NN(C(C)=O)C(c3ccc(OC(C)=O)cc3OC(C)=O)O2)c(OC(C)=O)c2ccccc12 (stereo unspecified) | 0.38 µM | 7.12 µM
COC(=O)Nc1nc2ccc(Oc3ccc(NC(=O)Nc4ccccc4)cc3)cc2[nH]1 | 1.65 µM | > 25 µM
O=C1c2c(Br)sc(Br)c2C(NC(=O)C(F)(F)F)C1O (stereo unspecified) |  | 56.7 µM
CCN(CC)CCCC(C)Nc1c(C)cnc2cc(Cl)c(C)cc12 (stereo unspecified) | 17.5 µM | > 78.5 µM
CC(=O)OC1CC(O)C23COC(O)C1(C)C2CC(O)C1(C)C3C(=O)C(O)C2(C)C(c3ccoc3)CC3OC321 (stereo unspecified) | 3.08 µM | > 41.4 µM
CCCCCCCC(CC(=O)NC(CO)C(=O)NC(CO)CC(C)C)OC(=O)CC(CCCCCCC)OC(=O)CC(CCCCCCC)OC1OC(C)C(O)C(OC2OC(C)C(O)C(OC(C)=O)C2O)C1O (stereo unspecified) |  | 28.3 µM
COc1ccc(C(C)c2cc3c(cc2OC)OCO3)cc1 (stereo unspecified) |  | > 100 µM
CCc1[nH]c(=O)nc(N)c1-c1ccc(N2CCCCC2)c([N+](=O)[O-])c1 |  | > 100 µM
CCC#CC[C@H]1C/C=C2/C(=O)C=C[C@@H]2C/C=C\CCCC(=O)O1 | 0.73 µM | 1.56 µM
COc1cc[nH]c1/C=C1\C(=O)Nc2ccccc21 | 1.69 µM | 24.6 µM
O=C(Nc1ccc(Cl)cc1)c1cc(-c2ccc(F)cc2)c2sc(=O)[nH]c2n1 | 1.61 µM | 3.89 µM
COc1cc(NC(=O)c2cc(O)c(CC=C(C)C)c(O)c2)cc2c1O[C@]1(C)CC[C@@H](O)C(C)(C)[C@H]1C2 | 2.42 µM | 8.18 µM
Cc1ccc(C(=NN=C(N)N)c2ccc(C)cc2)cc1 | 1.73 µM | 9.76 µM
Clc1nc(Cl)c2ncn(Cc3cccc(COc4cccc(OCc5cccc(Cn6cnc7c(Cl)nc(Cl)nc76)c5)c4)c3)c2n1 | 66.4 µM | > 100 µM
CN(C)c1ccc(N)cc1 | 3.97 µM | 16.3 µM
CCS(=O)(=O)c1ccc(OC)c(Nc2ncc(-c3cccc(OC)c3)o2)c1 | 3.4 µM | 13.8 µM
CC(C)c1ccc(C(=O)Nc2sc3c(c2C(N)=O)CCC(=O)C3)cc1 | 0.267 µM | 1.1 µM
